Test results published in PubChem BioAssay AID256 (DTP/NCI, 2004).
Where “and” joins values, the source holds several entries; their conditions need not be identical. Equal entries are not always repeated. Inconclusive results and toxic doses are left out. The calls were made as follows: active = survival T/C of 150% or more; inactive = T/C below 125% in these data.

System: CD2F1 mice, L1210 leukemia ip, survival T/C
Experiment: NCI In Vivo Anticancer Drug Screen. Data for tumor model L1210 Leukemia (intraperitoneal) in CD2F1 (CDF1) mice
Conditions: higher = longer survival
How it was run: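 Read-out first: treated-group measurement over vehicle-control measurement, expressed as a ratio. Animals bore a transplanted tumor line and were dosed with compound or vehicle.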

[1] = endpoint: mean survival time, dose: 75.0 mg/kg/injection, schedule: Q01DX001 (ip), vehicle: saline
[2] = endpoint: mean survival time, dose: 150.0 mg/kg/injection, schedule: Q01DX001 (ip), vehicle: saline
[3] = endpoint: mean survival time, dose: 50.0 mg/kg/injection, schedule: Q01DX009 (ip), vehicle: saline with Tween-80
[4] = endpoint: mean survival time, dose: 100.0 mg/kg/injection, schedule: Q01DX009 (ip), vehicle: saline with Tween-80
[5] = endpoint: mean survival time, dose: 200.0 mg/kg/injection, schedule: Q01DX009 (ip), vehicle: saline with Tween-80
[6] = endpoint: mean survival time, dose: 100.0 mg/kg/injection, schedule: Q04DX002 (ip), vehicle: saline with Tween-80
[7] = endpoint: mean survival time, dose: 200.0 mg/kg/injection, schedule: Q04DX002 (ip), vehicle: saline with Tween-80
[8] = endpoint: mean survival time, dose: 400.0 mg/kg/injection, schedule: Q04DX002 (ip), vehicle: saline with Tween-80
[9] = endpoint: mean survival time, dose: 100.0 mg/kg/injection, schedule: Q04DX003 (ip), vehicle: saline with Tween-80
[10] = endpoint: mean survival time, dose: 200.0 mg/kg/injection, schedule: Q04DX003 (ip), vehicle: saline with Tween-80
[11] = endpoint: mean survival time, dose: 400.0 mg/kg/injection, schedule: Q04DX003 (ip), vehicle: saline with Tween-80
[12] = endpoint: mean survival time, dose: 400.0 mg/kg/injection, schedule: Q01DX009 (ip), vehicle: saline with Tween-80
[13] = endpoint: mean survival time, dose: 100.0 mg/kg/injection, schedule: Q04DX002 (ip), vehicle: saline
[14] = endpoint: mean survival time, dose: 200.0 mg/kg/injection, schedule: Q04DX002 (ip), vehicle: saline

Measured: T/C

CC(=O)OCC1OC(OC(C)=O)C(NC(=S)N(C)N=O)C(OC(C)=O)C1OC(C)=O (stereo not given)
inactive: endpoint: mean survival time, dose: 12.5 mg/kg/injection, schedule: Q04DX002 (ip), vehicle: distilled water + Tween-80 106 % of control | endpoint: mean survival time, dose: 25.0 mg/kg/injection, schedule: Q04DX002 (ip), vehicle: distilled water + Tween-80 103 % of control | endpoint: mean survival time, dose: 50.0 mg/kg/injection, schedule: Q04DX002 (ip), vehicle: distilled water + Tween-80 113 % of control | endpoint: mean survival time, dose: 100.0 mg/kg/injection, schedule: Q04DX002 (ip), vehicle: distilled water + Tween-80 118 % of control and 120 % of control

CC(C)CCC(C(=O)O)C(=O)O
inactive: [1] 96 % of control | [2] 102 % of control

CC(O)(c1ccccc1)C(CCl)N1CCCCC1 (stereo not given)
inactive: [3] 95 % of control | [4] 97 % of control | [5] 91 % of control

O=C(NC(=S)Nc1ccccc1Cl)c1ccc(Cl)cc1
inactive: [6] 103 % of control | [7] 88 % of control | [8] 88 % of control

O=[Se](O)O.[NH-]C1CCCCC1[NH-].[Pt+2] (stereo not given)
inactive: endpoint: mean survival time, dose: 1.0 mg/kg/injection, schedule: Q04DX003 (ip), vehicle: dextrose 124 % of control

CCN(CC)c1ccc2cc3ccc(=[N+](CC)CC)cc-3oc2c1
inactive: endpoint: mean survival time, dose: 9.0 mg/kg/injection, schedule: Q01DX010 (ip), vehicle: saline 106 % of control

COc1ccc(CN(CCO)Cc2ccccc2)cc1OC
inactive: [3] 100 % of control | [4] 90 % of control | [9] 98 % of control | [5] 100 % of control | [10] 97 % of control

CCC(C)Nc1ccc(N)cc1 (stereo not given)
inactive: endpoint: mean survival time, dose: 0.09 mg/kg/injection, schedule: Q01DX009 (ip), vehicle: Klucel (hydroxypropylcellulose) (HPC) 103 % of control | endpoint: mean survival time, dose: 0.18 mg/kg/injection, schedule: Q01DX009 (ip), vehicle: Klucel (hydroxypropylcellulose) (HPC) 94 % of control | endpoint: mean survival time, dose: 0.37 mg/kg/injection, schedule: Q01DX009 (ip), vehicle: Klucel (hydroxypropylcellulose) (HPC) 103 % of control | endpoint: mean survival time, dose: 0.75 mg/kg/injection, schedule: Q01DX009 (ip), vehicle: Klucel (hydroxypropylcellulose) (HPC) 103 % of control | endpoint: mean survival time, dose: 1.5 mg/kg/injection, schedule: Q01DX009 (ip), vehicle: Klucel (hydroxypropylcellulose) (HPC) 102 % of control | endpoint: mean survival time, dose: 3.0 mg/kg/injection, schedule: Q01DX009 (ip), vehicle: Klucel (hydroxypropylcellulose) (HPC) 94 % of control

CC(C)(c1ccc(Nc2ccccc2)cc1)c1ccc(Nc2ccccc2)cc1
inactive: endpoint: mean survival time, dose: 100.0 mg/kg/injection, schedule: Q04DX003 (ip), vehicle: Klucel (hydroxypropylcellulose) (HPC) 96 % of control | endpoint: mean survival time, dose: 200.0 mg/kg/injection, schedule: Q04DX003 (ip), vehicle: Klucel (hydroxypropylcellulose) (HPC) 96 % of control | endpoint: mean survival time, dose: 400.0 mg/kg/injection, schedule: Q04DX003 (ip), vehicle: Klucel (hydroxypropylcellulose) (HPC) 92 % of control

COC(=O)Nc1nc2ccc(SC)cc2c(=O)[nH]1
inactive: endpoint: median survival time, dose: 25.0 mg/kg/injection, schedule: Q01DX009 (ip), vehicle: Klucel (hydroxypropylcellulose) (HPC) 98 % of control | endpoint: median survival time, dose: 50.0 mg/kg/injection, schedule: Q01DX009 (ip), vehicle: Klucel (hydroxypropylcellulose) (HPC) 98 % of control | endpoint: median survival time, dose: 100.0 mg/kg/injection, schedule: Q01DX009 (ip), vehicle: Klucel (hydroxypropylcellulose) (HPC) 98 % of control | endpoint: median survival time, dose: 200.0 mg/kg/injection, schedule: Q01DX009 (ip), vehicle: Klucel (hydroxypropylcellulose) (HPC) 112 % of control

NC1CC(N)C(O)C(O)C1O (stereo not given)
inactive: endpoint: mean survival time, dose: 100.0 mg/kg/injection, schedule: Q01DX001 (ip), vehicle: saline 95 % of control | [6] 103 % of control | endpoint: mean survival time, dose: 200.0 mg/kg/injection, schedule: Q01DX001 (ip), vehicle: saline 100 % of control | [7] 103 % of control | endpoint: mean survival time, dose: 400.0 mg/kg/injection, schedule: Q01DX001 (ip), vehicle: saline 94 % of control | [8] 95 % of control

Cc1ccc(C(O)(c2ccccc2)c2ccccc2C(=O)Nc2ccccc2)cc1 (stereo not given)
inactive: [9] 88 % of control | [10] 90 % of control | [11] 95 % of control

COC(=O)C1(C)CCCC2(C)C1CCC1(O)C2CC2OC2(C(C)C)C1O (stereo not given)
inactive: [4] 102 % of control | [9] 97 % of control | [5] 96 % of control | [10] 93 % of control | [12] 98 % of control | [11] 87 % of control

CN(C)C/C(=C\c1ccccc1)C(=O)c1ccccc1
inactive: endpoint: mean survival time, dose: 12.5 mg/kg/injection, schedule: Q04DX003 (ip), vehicle: other 98 % of control | endpoint: mean survival time, dose: 25.0 mg/kg/injection, schedule: Q04DX003 (ip), vehicle: other 97 % of control | endpoint: mean survival time, dose: 50.0 mg/kg/injection, schedule: Q04DX003 (ip), vehicle: other 101 % of control

COc1ccc(OC)c(NC(=O)c2cccc([N+](=O)[O-])c2)c1
inactive: [4] 90 % of control and 103 % of control | [5] 92 % of control and 93 % of control | [12] 89 % of control and 95 % of control

NCC1CCNCC1
inactive: endpoint: mean survival time, dose: 25.0 mg/kg/injection, schedule: Q04DX002 (ip), vehicle: saline 94 % of control | endpoint: mean survival time, dose: 50.0 mg/kg/injection, schedule: Q04DX002 (ip), vehicle: saline 97 % of control | [13] 91 % of control | [14] 102 % of control

CC(/C=N\O)=N\O
inactive: endpoint: mean survival time, dose: 100.0 mg/kg/injection, schedule: Q01DX001 (ip), vehicle: saline with Tween-80 97 % of control | endpoint: mean survival time, dose: 200.0 mg/kg/injection, schedule: Q01DX001 (ip), vehicle: saline with Tween-80 103 % of control

CCCCCCCCC1C(CCCCCCCC(=O)N2CCCC2)C2(Cl)C(Cl)=C(Cl)C1(Cl)C2(Cl)Cl (stereo not given)
inactive: [1] 98 % of control | [2] 104 % of control | endpoint: mean survival time, dose: 300.0 mg/kg/injection, schedule: Q01DX001 (ip), vehicle: saline 96 % of control

CC1Sc2ccccc2-c2[nH]c3ccccc3c21 (stereo not given)
inactive: [9] 97 % of control | [10] 87 % of control | [11] 90 % of control

Cc1ccccc1OS(=O)(=O)c1cccc([N+](=O)[O-])c1
inactive: [9] 103 % of control | [10] 100 % of control | [11] 100 % of control

COc1ccc(N(C)c2ccc(C(=C3C=CC(=[N+](C)CCO)C=C3)c3ccc(N(C)CCO)cc3)cc2)cc1
inactive: endpoint: mean survival time, dose: 6.25 mg/kg/injection, schedule: Q04DX002 (ip), vehicle: saline with Tween-80 108 % of control | endpoint: mean survival time, dose: 25.0 mg/kg/injection, schedule: Q04DX002 (ip), vehicle: saline with Tween-80 108 % of control

C=C1C(=O)OC2CC(C)C3CC(O)OC(O)C3(C)CC12 (stereo not given)
inactive: endpoint: mean survival time, dose: 3.13 mg/kg/injection, schedule: Q01DX005 (ip), vehicle: water 88 % of control | endpoint: mean survival time, dose: 6.25 mg/kg/injection, schedule: Q01DX005 (ip), vehicle: water 94 % of control | endpoint: mean survival time, dose: 12.5 mg/kg/injection, schedule: Q01DX005 (ip), vehicle: water 102 % of control

Cn1cnc([N+](=O)[O-])c1Sc1nc(N)nc2nc[nH]c12
active: endpoint: mean survival time, dose: 5.0 mg/kg/injection, schedule: Q03DX003 (ip), vehicle: Klucel (hydroxypropylcellulose) (HPC) 153 % of control | endpoint: mean survival time, dose: 10.0 mg/kg/injection, schedule: Q03DX003 (ip), vehicle: Klucel (hydroxypropylcellulose) (HPC) 160 % of control | endpoint: mean survival time, dose: 20.0 mg/kg/injection, schedule: Q03DX003 (ip), vehicle: Klucel (hydroxypropylcellulose) (HPC) 154 % of control
inactive: endpoint: mean survival time, dose: 10.0 mg/kg/injection, schedule: Q01DX007 (ip), vehicle: Klucel (hydroxypropylcellulose) (HPC) 122 % of control | endpoint: mean survival time, dose: 20.0 mg/kg/injection, schedule: Q01DX007 (ip), vehicle: Klucel (hydroxypropylcellulose) (HPC) 117 % of control

CN(C)c1ccc(C(=N)c2ccc(N(C)C)cc2)cc1 (tested in a mixture with another compound)
inactive: endpoint: mean survival time, dose: 12.5 mg/kg/injection, schedule: Q01DX009 (ip), vehicle: saline with Tween-80 98 % of control | [3] 93 % of control

CN(C)C(=O)OCC#CCOC(=O)N(C)C
inactive: [13] 101 % of control | [14] 86 % of control

CC(=O)OCCN1CCN(CC/C=C2\c3ccccc3Sc3ccc(Cl)cc32)CC1
inactive: endpoint: mean survival time, dose: 3.13 mg/kg/injection, schedule: Q01DX009 (ip), vehicle: saline 100 % of control | endpoint: mean survival time, dose: 6.25 mg/kg/injection, schedule: Q01DX009 (ip), vehicle: saline 116 % of control and 105 % of control | endpoint: mean survival time, dose: 6.25 mg/kg/injection, schedule: Q04DX003 (ip), vehicle: saline 98 % of control | endpoint: mean survival time, dose: 12.5 mg/kg/injection, schedule: Q01DX009 (ip), vehicle: saline 117 % of control and 123 % of control | endpoint: mean survival time, dose: 12.5 mg/kg/injection, schedule: Q04DX003 (ip), vehicle: saline 89 % of control | endpoint: mean survival time, dose: 25.0 mg/kg/injection, schedule: Q01DX009 (ip), vehicle: saline 117 % of control | endpoint: mean survival time, dose: 25.0 mg/kg/injection, schedule: Q04DX003 (ip), vehicle: saline 98 % of control and 111 % of control | endpoint: mean survival time, dose: 50.0 mg/kg/injection, schedule: Q04DX003 (ip), vehicle: saline 101 % of control
